Assay results taken from ChEMBL document CHEMBL4842322, “A naphthalimide-polyamine conjugate preferentially accumulates in hepatic carcinoma metastases as a lysosome-targeted antimetastatic agent” (Eur J Med Chem, 2021).

Key:
Format in all cases: functional, cell-based
HepG2 = test: Cytotoxicity against human HepG2 cells assessed as inhibition of cell growth incubated for 48 hrs by MTT assay; conditions: HepG2, 48 h
Huh-7 = test: Cytotoxicity against human Huh-7 cells assessed as inhibition of cell growth incubated for 48 hrs by MTT assay; conditions: Huh-7, 48 h
MDA-MB-231 = test: Cytotoxicity against human MDA-MB-231 cells assessed as inhibition of cell growth incubated for 48 hrs by MTT assay; conditions: MDA-MB-231, 48 h
MCF7 = test: Cytotoxicity against human MCF7 cells assessed as inhibition of cell growth incubated for 48 hrs by MTT assay; conditions: MCF7, 48 h
A549 [1] = test: Cytotoxicity against human A549 cells assessed as inhibition of cell growth incubated for 48 hrs by MTT assay; conditions: A549, 48 h
A549 [2] = test: Cytotoxicity against cisplatin-resistant human A549 cells assessed as inhibition of cell growth incubated for 48 hrs by MTT assay; conditions: A549, 48 h

SMILES	IC50 (HepG2) [µM]	IC50 (Huh-7) [µM]	IC50 (MDA-MB-231) [µM]	IC50 (MCF7) [µM]	IC50 (A549 [1]) [µM]	IC50 (A549 [2]) [µM]
CCCNCCCNCCCNCCCN1C(=O)c2cccc3cc(NC(=O)CN)cc(c23)C1=O	> 30	14.9	> 30	> 30	> 30	> 30
CCCNCCCN1C(=O)c2cccc3cc(NC(=O)CN)cc(c23)C1=O	> 30	10.1	> 30	> 30	> 30	> 30
NCCCCNCCCCN1C(=O)c2cccc3cc(NC(=O)CN)cc(c23)C1=O	> 30	28.7	> 30	> 30	> 30	> 30
